Source: the supplement of paper PMC10307832

Legend:
Assay in all cases: relative viability (nuclei count vs DMSO), 5 days (fraction); higher = more cells survive
NVP-TAE684 + Linsitinib = compound: COc1cc(N2CCC(N3CCN(C)CC3)CC2)ccc1Nc1ncc(Cl)c(Nc2ccccc2S(=O)(=O)C(C)C)n1 [NVP-TAE684] + C[C@]1(O)C[C@@H](c2nc(-c3ccc4ccc(-c5ccccc5)nc4c3)c3c(N)nccn32)C1 [Linsitinib] (partner 1 µM)
In short: (§1)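 A single step with final 0.05% Triton X-100, 1% formaldehyde and 1 ug/ml Hoechst fixed the cells and stained nuclei 5 days after treatment. Lung cancer cell lines in 1536-well plates had been treated by pin tool the day after seeding with one drug alone or a fixed anchor-drug dose plus five library-drug doses (not always all listed) in √10 steps, and nuclei were counted on 4× images. Relative viability is the ratio of nuclei in treated wells to nuclei in vehicle wells, taken as the median of duplicate plates.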

CUDC-101 + AZD7762 = compound: C#Cc1cccc(Nc2ncnc3cc(OC)c(OCCCCCCC(=O)NO)cc23)c1 [CUDC-101] + NC(=O)Nc1cc(-c2cccc(F)c2)sc1C(=O)N[C@H]1CCCNC1 [AZD7762] (partner 0.2 µM)
In short: as §1

CUDC-101 + Alpelisib = compound: C#Cc1cccc(Nc2ncnc3cc(OC)c(OCCCCCCC(=O)NO)cc23)c1 [CUDC-101] + Cc1nc(NC(=O)N2CCC[C@H]2C(N)=O)sc1-c1ccnc(C(C)(C)C(F)(F)F)c1 [Alpelisib] (partner 2 µM)
In short: as §1

NVP-TAE684 + Tozasertib = compound: COc1cc(N2CCC(N3CCN(C)CC3)CC2)ccc1Nc1ncc(Cl)c(Nc2ccccc2S(=O)(=O)C(C)C)n1 [NVP-TAE684] + Cc1cc(Nc2cc(N3CCN(C)CC3)nc(Sc3ccc(NC(=O)C4CC4)cc3)n2)n[nH]1 [Tozasertib] (partner 0.1 µM)
In short: as §1

NVP-TAE684 + Pemetrexed = compound: COc1cc(N2CCC(N3CCN(C)CC3)CC2)ccc1Nc1ncc(Cl)c(Nc2ccccc2S(=O)(=O)C(C)C)n1 [NVP-TAE684] + Nc1nc2[nH]cc(CCc3ccc(C(=O)N[C@@H](CCC(=O)O)C(=O)O)cc3)c2c(=O)[nH]1 [Pemetrexed] (partner 0.2 µM)
In short: as §1

Row | Cell Line | relative viability (NVP-TAE684 + Linsitinib; first compound 0.6325 µM) | relative viability (NVP-TAE684 + Linsitinib; first compound 2 µM) | relative viability (CUDC-101 + AZD7762; first compound 0.01 µM) | relative viability (CUDC-101 + AZD7762; first compound 0.03162 µM) | relative viability (CUDC-101 + AZD7762; first compound 0.1 µM) | relative viability (CUDC-101 + AZD7762; first compound 0.3162 µM) | relative viability (CUDC-101 + AZD7762; first compound 1 µM) | relative viability (CUDC-101 + Alpelisib; first compound 0.01 µM) | relative viability (CUDC-101 + Alpelisib; first compound 0.03162 µM) | relative viability (CUDC-101 + Alpelisib; first compound 0.1 µM) | relative viability (CUDC-101 + Alpelisib; first compound 0.3162 µM) | relative viability (CUDC-101 + Alpelisib; first compound 1 µM) | relative viability (NVP-TAE684 + Tozasertib; first compound 0.2 µM) | relative viability (NVP-TAE684 + Tozasertib; first compound 0.6325 µM) | relative viability (NVP-TAE684 + Tozasertib; first compound 2 µM) | relative viability (NVP-TAE684 + Pemetrexed; first compound 0.2 µM) | relative viability (NVP-TAE684 + Pemetrexed; first compound 0.6325 µM) | relative viability (NVP-TAE684 + Pemetrexed; first compound 2 µM) | relative viability (NVP-TAE684 + Linsitinib; first compound 0.2 µM)
1 | NCI-H2405 | 0.849 | 0.573 | 0.763 | 0.704 | 0.809 | 0.747 | 0.649 | 0.952 | 0.574 | 0.87 | 1.22 | 0.603 | 0.742 | 0.664 | 0.35 | 1.17 | 0.901 | 0.567 | –
2 | NCI-H2087 | 1.04 | 0.982 | 1.32 | 1.46 | 1.28 | 1.24 | 0.815 | 1.02 | 1.02 | 0.979 | 1.05 | 0.783 | 0.22 | 0.262 | 0.166 | 0.679 | 0.707 | 0.57 | 1.04
3 | NCI-H2023 | 0.669 | 0.265 | – | – | – | – | – | 0.552 | 0.581 | 0.564 | 0.663 | 0.565 | 0.413 | 0.332 | 0.103 | 0.258 | 0.186 | 0.123 | 0.517
4 | NCI-H3122 | 0.222 | 0.184 | 0.998 | 0.951 | 1 | 1.04 | 1.06 | 0.666 | 0.83 | 0.808 | 0.875 | 0.969 | 0.156 | 0.091 | 0.118 | 0.159 | 0.117 | 0.114 | 0.266
5 | ChaGo-K-1 | – | – | 0.92 | 0.913 | 0.937 | 0.841 | 0.732 | – | – | – | – | – | 0.214 | 0.206 | 0.16 | 0.273 | 0.246 | 0.264 | –
6 | NCI-H2347 | 0.976 | 0.875 | 0.934 | 0.653 | 0.697 | 0.791 | 0.569 | 1.09 | 1.08 | 1.09 | 1.11 | 1.03 | 0.59 | 0.487 | 0.359 | 0.431 | 0.38 | 0.406 | 1.06
7 | NCI-H460 | 0.911 | 0.298 | 0.651 | 0.531 | 0.564 | 0.589 | 0.476 | 0.478 | 0.42 | 0.589 | 0.443 | 0.465 | 0.671 | 0.498 | 0.4 | 0.0526 | 0.0587 | 0.0483 | 0.732
8 | HCC-827 | 1.01 | 0.973 | 0.206 | 0.145 | 0.13 | 0.117 | 0.113 | 0.958 | 0.27 | 0.224 | 0.187 | 0.179 | 0.462 | 0.41 | 0.715 | 0.259 | 0.262 | 0.261 | 0.978
9 | HOP-62 | 0.963 | 0.755 | 0.61 | 0.448 | 0.447 | 0.424 | 0.294 | 0.777 | 0.792 | 1.11 | 1.05 | 0.741 | 0.397 | 0.386 | 0.294 | 0.34 | 0.392 | 0.345 | 0.97
10 | NCI-H1792 | 0.509 | 0.504 | 0.789 | 0.513 | 0.687 | 0.653 | 0.423 | 0.702 | 0.57 | 0.695 | 0.734 | 0.645 | – | – | – | 0.773 | 0.799 | 0.799 | 0.451
11 | HCC-15 | 0.866 | 0.601 | 1.3 | 1.08 | 1.2 | 1.15 | 1.18 | 0.875 | 0.888 | 0.909 | 0.909 | 0.763 | 0.368 | 0.389 | 0.176 | 0.245 | 0.204 | 0.182 | 0.84
12 | NCI-H1755 | 1.05 | – | 0.387 | 0.396 | 0.463 | 0.43 | 0.317 | 0.96 | 0.944 | 0.956 | 0.972 | 0.844 | 0.601 | 0.585 | 0.473 | 0.394 | 0.583 | 0.384 | 1.05
13 | NCI-H23 | 0.584 | 0.509 | 0.293 | 0.161 | 0.282 | 0.276 | 0.226 | 0.775 | 0.592 | 0.727 | 0.652 | 0.718 | 0.402 | 0.367 | 0.241 | 0.719 | 0.556 | 0.395 | 0.533
14 | BEN | 0.904 | 0.848 | 0.68 | 0.735 | 0.703 | 0.684 | 0.645 | 1.21 | 0.887 | 1.17 | 0.848 | 0.737 | 0.513 | 0.492 | 0.392 | 0.843 | 0.728 | 0.682 | 0.804
15 | NCI-H1651 | 0.98 | 0.935 | 0.502 | 0.442 | 0.534 | 0.398 | 0.349 | 1.03 | 0.772 | 1 | 0.93 | 0.817 | 0.931 | 0.695 | 0.576 | 0.594 | 0.566 | 0.565 | 1.02
16 | NCI-H2126 | 0.684 | 0.688 | 1.01 | 0.98 | 0.939 | 0.945 | 0.943 | 0.771 | 0.706 | 0.7 | 0.74 | 0.531 | 0.96 | 0.764 | 0.407 | 0.734 | 0.67 | 0.554 | 0.701
17 | EKVX | 0.897 | 0.709 | 0.84 | 0.68 | 0.656 | 0.771 | 0.563 | 0.833 | 0.817 | 0.849 | 1.03 | 0.682 | 0.391 | 0.36 | 0.274 | 0.376 | 0.337 | 0.254 | 0.896
